In PubChem BioAssay (NCI):
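How tested: cells in 96-well plates exposed to compound for 48 hours at five concentrations. Definition used: TGI = concentration required for complete inhibition of growth.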

Assays:
Assay in all cases: NCI anticancer screen, dose series, 48 h
[1] = test system: A498 renal
[2] = test system: BT-549 breast
[3] = test system: HCC-2998 colon
[4] = test system: HCT-15 colon
[5] = test system: HOP-62 NSCLC
[6] = test system: LOX IMVI melanoma
[7] = test system: MCF7 breast
[8] = test system: MDA-MB-231 breast
[9] = test system: NCI/ADR-RES ovarian
[10] = test system: OVCAR-4 ovarian
[11] = test system: SF-268 CNS
[12] = test system: SF-295 CNS
[13] = test system: SN12C renal
[14] = test system: TK-10 renal
[15] = test system: UACC-62 melanoma

**Q.** With C=CCN1C(=O)CS/C1=N\NC(=O)CSc1nc2ccccc2c(=O)n1CC as the molecule, how does the TGI [1] read?
**A.** > 100 µM

**Q.** What about the TGI [2] of the same molecule?
**A.** > 100 µM

**Q.** And the TGI [3]?
**A.** > 100 µM

**Q.** What about the TGI [4] of the same molecule?
**A.** > 100 µM

**Q.** What about the TGI [5] of the same molecule?
**A.** > 100 µM

**Q.** What about the TGI [6] of the same molecule?
**A.** > 100 µM

**Q.** And the TGI [7]?
**A.** > 100 µM

**Q.** What about the TGI [8] of the same molecule?
**A.** > 100 µM

**Q.** What about the TGI [9] of the same molecule?
**A.** > 100 µM

**Q.** And the TGI [10]?
**A.** > 100 µM

**Q.** What about the TGI [11] of the same molecule?
**A.** > 100 µM

**Q.** What about the TGI [12] of the same molecule?
**A.** > 100 µM

**Q.** And the TGI [13]?
**A.** > 100 µM

**Q.** What about the TGI [14] of the same molecule?
**A.** > 100 µM

**Q.** What about the TGI [15] of the same molecule?
**A.** > 100 µM

**Q.** How did the TGI [1] turn out when Oc1cccc2ccc(Br)nc12 was run?
**A.** > 100 µM

**Q.** And the TGI [2]?
**A.** > 100 µM

**Q.** What about the TGI [3] of the same molecule?
**A.** > 100 µM

**Q.** And the TGI [4]?
**A.** > 100 µM

**Q.** What about the TGI [5] of the same molecule?
**A.** > 100 µM

**Q.** And the TGI [6]?
**A.** > 100 µM

**Q.** What about the TGI [7] of the same molecule?
**A.** > 100 µM

**Q.** And the TGI [8]?
**A.** > 100 µM

**Q.** What about the TGI [9] of the same molecule?
**A.** > 100 µM

**Q.** What about the TGI [10] of the same molecule?
**A.** > 100 µM

**Q.** What about the TGI [11] of the same molecule?
**A.** > 100 µM

**Q.** What about the TGI [12] of the same molecule?
**A.** > 100 µM

**Q.** And the TGI [13]?
**A.** > 100 µM

**Q.** What about the TGI [14] of the same molecule?
**A.** > 100 µM

**Q.** And the TGI [15]?
**A.** > 100 µM

**Q.** For COC(=O)/C(C#N)=C/c1cc(C(C)(C)C)c(O)c(C(C)(C)C)c1, which TGI [1] is on record?
**A.** 8.37 µM

**Q.** What about the TGI [2] of the same molecule?
**A.** 14 µM

**Q.** And the TGI [3]?
**A.** 7.8 µM

**Q.** And the TGI [4]?
**A.** 13 µM

**Q.** What about the TGI [5] of the same molecule?
**A.** 11.3 µM

**Q.** And the TGI [6]?
**A.** 17 µM

**Q.** And the TGI [7]?
**A.** 15.7 µM

**Q.** What about the TGI [8] of the same molecule?
**A.** 4.95 µM

**Q.** What about the TGI [9] of the same molecule?
**A.** 9.65 µM

**Q.** And the TGI [10]?
**A.** > 51.2 µM

**Q.** And the TGI [11]?
**A.** > 40.5 µM

**Q.** What about the TGI [12] of the same molecule?
**A.** 6.74 µM

**Q.** And the TGI [13]?
**A.** 8.17 µM

**Q.** And the TGI [14]?
**A.** 12.9 µM

**Q.** What about the TGI [15] of the same molecule?
**A.** 15.1 µM

**Q.** What does the source list for CN1CCN(Cc2ccccc2)CC1CC#N (stereo not given)?
**A.** TGI [1]: > 100 µM; TGI [2]: > 100 µM; TGI [3]: > 100 µM; TGI [4]: > 100 µM; TGI [5]: > 100 µM; TGI [6]: > 100 µM; TGI [7]: > 100 µM; TGI [8]: > 100 µM; TGI [9]: > 100 µM; TGI [10]: > 100 µM; TGI [11]: > 100 µM; TGI [12]: > 100 µM; TGI [13]: > 100 µM; TGI [14]: > 100 µM; TGI [15]: > 100 µM

**Q.** With CCOC(=O)C1=NNC(C(=O)c2ccccc2)C1c1ccccc1 (stereo not given) as the molecule, how does the TGI [1] read?
**A.** > 100 µM

**Q.** What about the TGI [2] of the same molecule?
**A.** 4.37 µM

**Q.** And the TGI [3]?
**A.** 3.92 µM

**Q.** And the TGI [4]?
**A.** 5.94 µM

**Q.** What about the TGI [5] of the same molecule?
**A.** 26 µM

**Q.** And the TGI [6]?
**A.** 10.6 µM

**Q.** What about the TGI [7] of the same molecule?
**A.** 5.82 µM

**Q.** What about the TGI [8] of the same molecule?
**A.** 12.2 µM

**Q.** What about the TGI [9] of the same molecule?
**A.** 12.3 µM

**Q.** And the TGI [10]?
**A.** > 38.3 µM

**Q.** What about the TGI [11] of the same molecule?
**A.** 19.2 µM

**Q.** What about the TGI [12] of the same molecule?
**A.** 31.8 µM

**Q.** And the TGI [13]?
**A.** 3.89 µM

**Q.** What about the TGI [14] of the same molecule?
**A.** 6.42 µM

**Q.** And the TGI [15]?
**A.** 8.63 µM

**Q.** How did the TGI [1] turn out when Cc1ccc(CN2CCN(Cc3ccc(C)o3)C(C)C2)o1 (stereo not given) was run?
**A.** > 100 µM

**Q.** What about the TGI [2] of the same molecule?
**A.** > 100 µM

**Q.** And the TGI [3]?
**A.** > 100 µM

**Q.** And the TGI [4]?
**A.** > 100 µM

**Q.** What about the TGI [5] of the same molecule?
**A.** > 100 µM

**Q.** What about the TGI [6] of the same molecule?
**A.** > 100 µM

**Q.** What about the TGI [7] of the same molecule?
**A.** > 100 µM

**Q.** And the TGI [8]?
**A.** > 100 µM

**Q.** And the TGI [9]?
**A.** > 100 µM

**Q.** And the TGI [10]?
**A.** > 100 µM

**Q.** And the TGI [11]?
**A.** > 100 µM

**Q.** And the TGI [12]?
**A.** > 100 µM

**Q.** What about the TGI [13] of the same molecule?
**A.** > 100 µM

**Q.** And the TGI [14]?
**A.** > 100 µM

**Q.** And the TGI [15]?
**A.** > 100 µM

**Q.** What does the source list for CC1(C)CCC[C@@]2(C)C1CC[C@@]1(CO1)[C@@H]2/C=C\C(C=O)CC=O (stereo not given in full)?
**A.** TGI [1]: > 100 µM; TGI [2]: > 100 µM; TGI [3]: > 100 µM; TGI [4]: > 100 µM; TGI [5]: > 100 µM; TGI [6]: > 100 µM; TGI [7]: > 100 µM; TGI [8]: > 100 µM; TGI [9]: > 100 µM; TGI [10]: > 100 µM; TGI [11]: > 100 µM; TGI [12]: > 100 µM; TGI [13]: > 100 µM; TGI [14]: > 100 µM; TGI [15]: > 100 µM

**Q.** Which results are given for COC(=O)C1=COC2OC3CC1C2C(C)O3 (stereo not given)?
**A.** TGI [1]: > 100 µM; TGI [2]: > 100 µM; TGI [3]: > 100 µM; TGI [4]: > 100 µM; TGI [5]: > 100 µM; TGI [6]: > 100 µM; TGI [7]: > 100 µM; TGI [8]: > 100 µM; TGI [9]: > 100 µM; TGI [10]: > 100 µM; TGI [11]: > 100 µM; TGI [12]: > 100 µM; TGI [13]: > 100 µM; TGI [14]: > 100 µM; TGI [15]: > 100 µM

**Q.** What does the source list for CCOC(=O)c1csc(-c2cn(C)c3c2C(=O)C(OC)=CC3=O)n1?
**A.** TGI [1]: 73.1 µM; TGI [2]: > 100 µM; TGI [3]: > 100 µM; TGI [4]: > 100 µM; TGI [5]: 74 µM; TGI [6]: > 100 µM; TGI [7]: 69.8 µM; TGI [8]: 57.8 µM; TGI [9]: > 100 µM; TGI [10]: > 100 µM; TGI [11]: > 100 µM; TGI [12]: 96.9 µM; TGI [13]: > 100 µM; TGI [14]: > 100 µM; TGI [15]: > 59 µM

**Q.** COc1ccc(C2=NN(C(=O)c3ccc(Cl)cc3)C(O)(c3cc(F)c(Cl)cc3Cl)C2)cc1 (stereo not given) was tested. Which TGI [1] did it give?
**A.** > 100 µM

**Q.** What about the TGI [2] of the same molecule?
**A.** > 100 µM

**Q.** What about the TGI [3] of the same molecule?
**A.** > 100 µM

**Q.** What about the TGI [4] of the same molecule?
**A.** > 100 µM

**Q.** What about the TGI [5] of the same molecule?
**A.** > 100 µM

**Q.** What about the TGI [6] of the same molecule?
**A.** > 100 µM

**Q.** What about the TGI [7] of the same molecule?
**A.** > 100 µM

**Q.** What about the TGI [8] of the same molecule?
**A.** > 100 µM

**Q.** And the TGI [9]?
**A.** > 100 µM

**Q.** What about the TGI [10] of the same molecule?
**A.** > 100 µM

**Q.** And the TGI [11]?
**A.** > 100 µM

**Q.** And the TGI [12]?
**A.** > 100 µM

**Q.** And the TGI [13]?
**A.** > 100 µM

**Q.** And the TGI [14]?
**A.** > 100 µM

**Q.** And the TGI [15]?
**A.** > 100 µM

**Q.** How did the TGI [1] turn out when C1=Cc2cccc3occ(c23)C=C1 was run?
**A.** > 100 µM

**Q.** And the TGI [2]?
**A.** > 100 µM

**Q.** What about the TGI [3] of the same molecule?
**A.** > 100 µM

**Q.** And the TGI [4]?
**A.** > 100 µM

**Q.** What about the TGI [5] of the same molecule?
**A.** > 100 µM

**Q.** What about the TGI [6] of the same molecule?
**A.** 33.8 µM

**Q.** And the TGI [7]?
**A.** > 100 µM

**Q.** What about the TGI [8] of the same molecule?
**A.** > 100 µM

**Q.** What about the TGI [9] of the same molecule?
**A.** > 100 µM

**Q.** And the TGI [10]?
**A.** > 100 µM

**Q.** And the TGI [11]?
**A.** > 100 µM

**Q.** And the TGI [12]?
**A.** > 100 µM

**Q.** And the TGI [13]?
**A.** > 100 µM

**Q.** What about the TGI [14] of the same molecule?
**A.** > 100 µM

**Q.** What about the TGI [15] of the same molecule?
**A.** > 100 µM

**Q.** Which results are given for Cn1c(N)c(/C=C/C(=O)Oc2ccccc2)c(=O)n(C)c1=O?
**A.** TGI [1]: > 100 µM; TGI [2]: > 100 µM; TGI [3]: > 100 µM; TGI [4]: > 100 µM; TGI [5]: 40.9 µM; TGI [6]: > 100 µM; TGI [7]: > 100 µM; TGI [8]: > 100 µM; TGI [9]: > 100 µM; TGI [10]: > 100 µM; TGI [11]: > 100 µM; TGI [12]: 93.6 µM; TGI [13]: > 100 µM; TGI [14]: > 100 µM; TGI [15]: > 100 µM
